Measurements taken from patent US20240150293A1, “SPIROCYCLOHEXANE DERIVATIVES, PHARMACEUTICAL COMPOSITIONS CONTAINING THEM AND THEIR USES AS ANTI-APOPTOTIC INHIBITORS” (LES LABORATOIRES SERVIER, priority 2021, published 2024).

Tested on: H929 multiple myeloma tumor line
Test: In vitro cytotoxicity, MTT assay (Example B, Method A)
Assay type: cell-based
Conditions: H929 cells, 48 hours exposure, read-out: C50
Experimental: The cytotoxicity studies were carried out on the H929 multiple myeloma tumor line.
The cells are distributed onto microplates and exposed to the test compounds for 48 hours. The cell viability is then quantified by a colorimetric assay, the Microculture Tetrazolium Assay (Carmichael et al, Cancer Res. 1987, 47, 939-942).
The results are expressed in C50 which means concentration corresponding to […] of effect/inhibition.

SMILES	IC50 [nM]
CC(C)C(COc1ccnc2ccsc12)CC1Cc2ccccc2[C@]12CC[C@@](Nc1cccc(Cl)c1)(C(=O)O)CC2 (single isomer, unassigned) [Example 523, (1r,4r)-4-(3-chloroanilino)-2′-(3-methyl-2-{[(thieno[3,2-b]pyridin-7-yl)oxy]methyl}butyl)-2′,3′-dihydrospiro[cyclohexane-1,1′-indene]-4-carboxylic acid]	16400
CC(C)C(COc1ccnc2ccsc12)CC1Cc2ccccc2[C@]12CC[C@@](Nc1cccc(Cl)c1)(C(=O)O)CC2 (single isomer, unassigned) [Example 524, (1r,4r)-4-(3-chloroanilino)-2′-(3-methyl-2-{[(thieno[3,2-b]pyridin-7-yl)oxy]methyl}butyl)-2′,3′-dihydrospiro[cyclohexane-1,1′-indene]-4-carboxylic acid]	30000

Same assay, conditions: Homo sapiens, NCI-H929, 48 h, H929 cells, 48 hours exposure, read-out: C50

SMILES	IC50 [nM]
CCC1CC(O)c2nccc(OC[C@H](C)C[C@H]3Cc4ccccc4[C@]34CC[C@@](Nc3cccc(Cl)c3)(C(=O)O)CC4)c21 (stereo partly drawn) [Example 624, (1r,2′S,4S)-4-(3-chloroanilino)-2′-{(2R)-3-[(5-ethyl-7-hydroxy-6,7-dihydro-5H-cyclopenta[b]pyridin-4-yl)oxy]-2-methylpropyl}-2′,3′-dihydrospiro[cyclohexane-1,1′-indene]-4-carboxylic acid]	525
C[C@@H](COc1cccc2ncsc12)C[C@H]1Cc2ccccc2[C@]12CC[C@@](Nc1cccc(Cl)c1)(C(=O)O)CC2 [Example 625, (1r,2′S,4S)-2′-{(2R)-3-[(1,3-benzothiazol-7-yl)oxy]-2-methylpropyl}-4-(3-chloroanilino)-2′,3′-dihydrospiro[cyclohexane-1,1′-indene]-4-carboxylic acid]	6590

Biological target: Cy5-labelled Mcl1 (amino acids 171-321) C286S protein (UniProtKB Q07820) (Homo sapiens (Human), UniProt Q07820, C286S)
Test: Inhibition of Mcl-1 by the fluorescence quenching assay (Example A, Method B)
Assay type: binding
Conditions: not given
Procedure, shortened: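 Cy5-labelled Mcl1 171-321 C286S (1 nM) quenched by TQ5WS-labelled PUMA peptide (10, 20 or 400 nM); displacement raises fluorescence (Ex 620/Em 680 nm). Buffer 10 mM HEPES, 150 mM NaCl, 0.05% Tween 20, pH 7.4, 5% DMSO; 2 h at room temperature, 11-point curves, IC50 converted to Ki (cKi/eKi).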

Cy5-labelled Mcl1 (amino acids 171-321) C286S protein, sequence (Q07820 171-321 C286S): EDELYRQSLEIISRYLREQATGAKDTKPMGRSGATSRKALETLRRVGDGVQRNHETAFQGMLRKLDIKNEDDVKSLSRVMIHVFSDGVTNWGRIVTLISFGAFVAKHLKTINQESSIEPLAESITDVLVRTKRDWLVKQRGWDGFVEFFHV

Ki [nM]	SMILES
9.15	CC[C@@H](COc1ccnc2ccsc12)C[C@H]1Cc2ccccc2[C@]12CC[C@@](Nc1cccc(Cl)c1)(C(=O)O)CC2 [Example 538, (1r,2′S,4S)-4-(3-chloroanilino)-2′-[(2R)-2-{[(thieno[3,2-b]pyridin-7-yl)oxy]methyl}butyl]-2′,3′-dihydrospiro[cyclohexane-1,1′-indene]-4-carboxylic acid]
25.4	CC[C@@H](COc1ccnc2ccsc12)C[C@@H]1Cc2ccccc2[C@]12CC[C@@](Nc1cccc(Cl)c1)(C(=O)O)CC2 [Example 539, (1r,2′R,4R)-4-(3-chloroanilino)-2′-[(2R)-2-{[(thieno[3,2-b]pyridin-7-yl)oxy]methyl}butyl]-2′,3′-dihydrospiro[cyclohexane-1,1′-indene]-4-carboxylic acid]
126	CC[C@H](COc1ccncc1)C[C@@H]1Cc2ccccc2[C@]12CC[C@@](Nc1cccc(Cl)c1)(C(=O)O)CC2 [Example 543, (1r,2′R,4R)-4-(3-chloroanilino)-2′-[(2S)-2-{[(pyridin-4-yl)oxy]methyl}butyl]-2′,3′-dihydrospiro[cyclohexane-1,1′-indene]-4-carboxylic acid]
221	C[C@@H](CNc1ccncc1)C[C@@H]1Cc2ccccc2[C@]12CC[C@@](Nc1cccc(Cl)c1)(C(=O)O)CC2 [Example 574, (1r,2′R,4R)-4-(3-chloroanilino)-2′-{(2R)-2-methyl-3-[(pyridin-4-yl)amino]propyl}-2′,3′-dihydrospiro[cyclohexane-1,1′-indene]-4-carboxylic acid]
2.68	CCc1cnccc1OC[C@H](C)C[C@H]1Cc2ccccc2[C@]12CC[C@@](Nc1cccc(Cl)c1)(C(=O)O)CC2 [Example 588, (1r,2′S,4S)-4-(3-chloroanilino)-2′-{(2R)-3-[(3-ethylpyridin-4-yl)oxy]-2-methylpropyl}-2′,3′-dihydrospiro[cyclohexane-1,1′-indene]-4-carboxylic acid]
44.1	C[C@@H](COc1cccc2[nH]ccc12)CC1Cc2ccccc2[C@]12CC[C@@](Nc1cccc(Cl)c1)(C(=O)O)CC2 (stereo partly drawn) [Example 594, (1r,4R)-4-(3-chloroanilino)-2′-{(2R)-3-[(1H-indol-4-yl)oxy]-2-methylpropyl}-2′,3′-dihydrospiro[cyclohexane-1,1′-indene]-4-carboxylic acid]
12.1	C[C@H](C[C@H]1Cc2ccccc2[C@]12CC[C@@](Nc1cccc(Cl)c1)(C(=O)O)CC2)[C@@H](C)Oc1ccnc2c1CCC2 [Example 616, (1r,2′S,4S)-4-(3-chloroanilino)-2′-{(2R,3R)-3-[(6,7-dihydro-5H-cyclopenta[b]pyridin-4-yl)oxy]-2-methylbutyl}-2′,3′-dihydrospiro[cyclohexane-1,1′-indene]-4-carboxylic acid]
42.6	C[C@@H](COc1ccnc2c1CCC2(C)O)C[C@H]1Cc2ccccc2[C@]12CC[C@@](Nc1cccc(Cl)c1)(C(=O)O)CC2 (stereo partly drawn) [Example 618, (1r,2′S,4S)-4-(3-chloroanilino)-2′-{(2R)-3-[(7-hydroxy-7-methyl-6,7-dihydro-5H-cyclopenta[b]pyridin-4-yl)oxy]-2-methylpropyl}-2′,3′-dihydrospiro[cyclohexane-1,1′-indene]-4-carboxylic acid]
6.01	C[C@@H](COc1ccnc2c1CCCCC2)CC1=Cc2ccccc2[C@]12CC[C@@](Nc1cccc(Cl)c1)(C(=O)O)CC2 [Example 632, (1r,4R)-4-(3-chloroanilino)-2′-{(2R)-2-methyl-3-[(6,7,8,9-tetrahydro-5H-cyclohepta[b]pyridin-4-yl)oxy]propyl}spiro[cyclohexane-1,1′-indene]-4-carboxylic acid]
6.36	Cc1cnc2c(c1OC[C@H](C)C[C@H]1Cc3ccccc3[C@]13CC[C@@](Nc1cccc(Cl)c1)(C(=O)O)CC3)CCCC2 [Example 649, (1r,2′S,4S)-4-(3-chloroanilino)-2′-{(2R)-2-methyl-3-[(3-methyl-5,6,7,8-tetrahydroquinolin-4-yl)oxy]propyl}-2′,3′-dihydrospiro[cyclohexane-1,1′-indene]-4-carboxylic acid]
65.3	Cc1cc(C(C)O)cc2c1CC(C[C@@H](C)COc1ccnc3c1[C@H](C)CCC3)[C@]21CC[C@](Nc2cccc(Cl)c2)(C(=O)O)CC1 (stereo partly drawn) [Example 761, (1r,4R)-4-(3-chloroanilino)-6′-(1-hydroxyethyl)-4′-methyl-2′-[(2R)-2-methyl-3-{[(5R)-5-methyl-5,6,7,8-tetrahydroquinolin-4-yl]oxy}propyl]-2′,3′-dihydrospiro[cyclohexane-1,1′-indene]-4-carboxylic acid]
0.469	CC(C)COc1cc2c(cc1Cl)C[C@H](C[C@@H](C)COc1ccnc3c1[C@H](C)CCC3)[C@]21CC[C@](Nc2cccc(Cl)c2)(C(=O)O)CC1 [Example 820, (1r,2′S,4S)-5′-chloro-4-(3-chloroanilino)-2′-[(2R)-2-methyl-3-{[(5R)-5-methyl-5,6,7,8-tetrahydroquinolin-4-yl]oxy}propyl]-6′-(2-methylpropoxy)-2′,3′-dihydrospiro[cyclohexane-1,1′-indene]-4-carboxylic acid]

More lines, now with the values behind:

SMILES	Ki [nM]
CC(C)(C)OC(=O)N1CCC(CC2=Cc3ccccc3[C@]23CC[C@@](Nc2cccc(Cl)c2)(C(=O)O)CC3)CC1 [Example 558, (1r,4r)-2′-{[1-(tert-butoxycarbonyl)piperidin-4-yl]methyl}-4-(3-chloroanilino)spiro[cyclohexane-1,1′-indene]-4-carboxylic acid]	549
C[C@@H](COc1ccnc2c1[C@H](C)CCC2)C[C@H]1Cc2cc3c(cc2[C@]12CC[C@@](Nc1cccc(Cl)c1)(C(=O)Oc1ccc4c(c1)CCC4)CC2)OCO3 [Example 937, 2,3-dihydro-1H-inden-5-yl (1r,4S,6′S)-4-(3-chloroanilino)-6′-[(2R)-2-methyl-3-{[(5R)-5-methyl-5,6,7,8-tetrahydroquinolin-4-yl]oxy}propyl]-6′,7′-dihydro-2′H-spiro[cyclohexane-1,5′-indeno[5,6-d][1,3]dioxole]-4-carboxylate]	28
C[C@@H](COc1ccnc2c1[C@H](C)CCC2)C[C@H]1Cc2cc3c(cc2[C@]12CC[C@@](Nc1cccc(Cl)c1)(C(=O)OCCCS(=O)(=O)O)CC2)OCO3 [Example 953, 3-({(1r,4S,6′S)-4-(3-chloroanilino)-6′-[(2R)-2-methyl-3-{[(5R)-5-methyl-5,6,7,8-tetrahydroquinolin-4-yl]oxy}propyl]-6′,7′-dihydro-2′H-spiro[cyclohexane-1,5′-indeno[5,6-d][1,3]dioxole]-4-carbonyl}oxy)propane-1-sulfonic acid]	55.6

Same assay, conditions: @ 1 μM, read-out: Mcl-1 inhibition, % at a single concentration

inhibition at 1 µM [%]	SMILES
11.1	COC(=O)[C@]1(Nc2cccc(Cl)c2)CC[C@@]2(CC1)c1cc3c(cc1C[C@@H]2C[C@@H](C)COc1ccnc2c1[C@H](C)CCC2)OCO3 [Example 839, methyl (1r,4S,6′S)-4-(3-chloroanilino)-6′-[(2R)-2-methyl-3-{[(5R)-5-methyl-5,6,7,8-tetrahydroquinolin-4-yl]oxy}propyl]-6′,7′-dihydro-2′H-spiro[cyclohexane-1,5′-indeno[5,6-d][1,3]dioxole]-4-carboxylate]

Same assay, conditions: @ 10 μM, read-out: Mcl-1 inhibition, % at a single concentration

inhibition at 10 µM [%]	SMILES
9.5	CC(C)OC(=O)[C@]1(Nc2cccc(Cl)c2)CC[C@@]2(CC1)c1cc3c(cc1C[C@@H]2C[C@@H](C)COc1ccnc2c1[C@H](C)CCC2)OCO3 [Example 931, propan-2-yl (1r,4S,6′S)-4-(3-chloroanilino)-6′-[(2R)-2-methyl-3-{[(5R)-5-methyl-5,6,7,8-tetrahydroquinolin-4-yl]oxy}propyl]-6′,7′-dihydro-2′H-spiro[cyclohexane-1,5′-indeno[5,6-d][1,3]dioxole]-4-carboxylate]
